What was measured:
[1] = test system: K562 (chronic myelogenous leukaemia); assay: Effect of compounds on tumor cell lines (assay of Latham et al.), K562; format: cell-based; details: Table 1; K562 cells, examined 96 hours after treatment, 1 μM to 100 μM in DMSO; read-out: K 562 potency (IC50)
Protocol: (§1) The effect of the compounds of the invention on tumor cells was determined by the assay described by Latham et al., Oncogene 12:827-837 (1996). Tumor cells K562 (chronic myelogenous leukaemia) or DU145 (prostate cancer) were plated in 12-well dishes at a cell density of 2.5×10^4 cells well. The plated cells were treated 24 hours later with a compound of the invention dissolved in DMSO at multiple concentrations ranging from 1 μM to 100 μM. The plates were examined 96 hours later under an inverted microscope, Olympus CK-2 using an 10× objective, and compound activity was noted by physical observation. When necessary, the total number of viable cells was determined by trypsinizing the wells and counting the number of viable cells, as determined by trypan blue exclusion, using a hemacytometer.
(§2) The representative compounds listed in Tables 1-5 are shown by way of illustration, and are not intended to limit the scope of the invention. The compounds are prepared and tested by methods based on those described above, except that the compound of Table 5 was dissolved in DMSO at multiple concentrations ranging from 0.1 μM to 100 μM

DU145 (prostate cancer) = assay: Effect of compounds on tumor cell lines (assay of Latham et al.), DU145; format: cell-based; details: Table 1; DU145 cells, examined 96 hours after treatment, 1 μM to 100 μM in DMSO; read-out: DU 145 potency (IC50)
Protocol: as §1, §2

Q: Cc1ccc(SC(=Cc2c(O)cc(O)cc2O)C(=O)c2ccc(Br)cc2)cc1 [Example 67] was tested. Which IC50 [1] did it give?
A: 50 to 100 µM

Q: What about the IC50 (DU145 (prostate cancer)) of the same molecule?
A: > 100 µM

Q: For Cc1ccc(SC(=Cc2c(O)cc(O)cc2O)C(=O)c2ccc(Cl)cc2)cc1 [Example 68], which IC50 [1] is on record?
A: > 100 µM

Q: What about the IC50 (DU145 (prostate cancer)) of the same molecule?
A: > 100 µM

Q: Which IC50 [1] does the source give for COc1cc(OC)c(C=C(Sc2ccc(C)cc2)C(=O)c2ccc(Cl)cc2)c(OC)c1 [Example 70] here?
A: 25 to 50 µM

Q: What about the IC50 (DU145 (prostate cancer)) of the same molecule?
A: > 100 µM

Q: With Cc1ccc(SC(=Cc2ccc(Cl)cc2Cl)C(=O)c2ccc(Cl)cc2)cc1 [Example 71] as the molecule, how does the IC50 [1] read?
A: 25 to 50 µM

Q: And the IC50 (DU145 (prostate cancer))?
A: 10 to 25 µM

Q: With Cc1ccc(SC(=Cc2ccc(F)cc2F)C(=O)c2ccc(Br)cc2)cc1 [Example 73] as the molecule, how does the IC50 [1] read?
A: > 100 µM

Q: And the IC50 (DU145 (prostate cancer))?
A: > 100 µM

Q: What does the source list for Cc1ccc(SC(=Cc2cc([N+](=O)[O-])ccc2F)C(=O)c2ccc(Cl)cc2)cc1 [Example 74]?
A: IC50 [1]: 1 to 10 µM; IC50 (DU145 (prostate cancer)): 10 to 25 µM

Q: With COc1ccccc1C=C(Sc1ccc(C)cc1)C(=O)c1ccc(Cl)cc1 [Example 75] as the molecule, how does the IC50 [1] read?
A: 10 to 25 µM

Q: What about the IC50 (DU145 (prostate cancer)) of the same molecule?
A: 25 to 50 µM

Q: With Cc1ccc(SC(=Cc2ccc[nH]2)C(=O)c2ccc(Cl)cc2)cc1 [Example 76] as the molecule, how does the IC50 [1] read?
A: 10 to 25 µM

Q: What about the IC50 (DU145 (prostate cancer)) of the same molecule?
A: 10 to 25 µM

Q: For Cc1ccc(SC(=Cc2ccc(Cl)c(Cl)c2)C(=O)c2ccc(Br)cc2)cc1 [Example 77], which IC50 [1] is on record?
A: 50 to 100 µM

Q: And the IC50 (DU145 (prostate cancer))?
A: 50 to 100 µM

Q: Which results are given for Cc1ccc(SC(=Cc2cc(C)cc(C)c2)C(=O)c2ccc(Cl)cc2)cc1 [Example 78]?
A: IC50 [1]: 25 to 50 µM; IC50 (DU145 (prostate cancer)): 50 to 100 µM

Q: How did the IC50 [1] turn out when COc1ccc(C=C(Sc2ccc(C)cc2)C(=O)c2ccc(Cl)cc2)cc1O [Example 79] was run?
A: 1 to 10 µM

Q: What about the IC50 (DU145 (prostate cancer)) of the same molecule?
A: 1 to 10 µM

Q: What does the source list for Cc1ccc(SC(=Cc2c[nH]c3ccccc23)C(=O)c2ccc(Br)cc2)cc1 [Example 80]?
A: IC50 [1]: 10 to 25 µM; IC50 (DU145 (prostate cancer)): 10 to 25 µM

Q: Which IC50 [1] does the source give for Cc1ccc(SC(=Cc2c[nH]c3ccccc23)C(=O)c2ccc(Cl)cc2)cc1 [Example 81] here?
A: 1 to 10 µM

Q: What about the IC50 (DU145 (prostate cancer)) of the same molecule?
A: 10 to 25 µM

Q: With Cc1ccc(SC(=Cc2sccc2C)C(=O)c2ccc(Br)cc2)cc1 [Example 82] as the molecule, how does the IC50 [1] read?
A: 50 to 100 µM

Q: And the IC50 (DU145 (prostate cancer))?
A: > 100 µM

Q: What does the source list for Cc1ccc(SC(=Cc2sccc2C)C(=O)c2ccc(Br)cc2)cc1 [Example 83]?
A: IC50 [1]: 50 to 100 µM; IC50 (DU145 (prostate cancer)): 50 to 100 µM

Q: For Cc1ccc(SC(=Cc2sccc2C)C(=O)c2ccc(Cl)cc2)cc1 [Example 84], which IC50 [1] is on record?
A: 50 to 100 µM

Q: And the IC50 (DU145 (prostate cancer))?
A: 50 to 100 µM

Q: How did the IC50 [1] turn out when Cc1ccc(SC(=Cc2cnc3ccccc3c2)C(=O)c2ccc(Cl)cc2)cc1 [Example 85] was run?
A: > 100 µM

Q: What about the IC50 (DU145 (prostate cancer)) of the same molecule?
A: > 100 µM

Q: CC(=O)Oc1ccc(C=C(Sc2ccc(C)cc2)C(=O)c2ccc(Cl)cc2)cc1 [Example 86] was tested. Which IC50 [1] did it give?
A: 1 to 10 µM

Q: What about the IC50 (DU145 (prostate cancer)) of the same molecule?
A: 10 to 25 µM

Q: What does the source list for CC(=O)c1ccc(C=C(Sc2ccc(C)cc2)C(=O)c2ccc(Br)cc2)cc1 [Example 87]?
A: IC50 [1]: 50 to 100 µM; IC50 (DU145 (prostate cancer)): 50 to 100 µM

Q: Cc1ccc(SC(=Cc2ccc(Br)cc2)C(=O)c2ccc(Cl)cc2)cc1 [Example 88] was tested. Which IC50 [1] did it give?
A: 50 to 100 µM

Q: And the IC50 (DU145 (prostate cancer))?
A: 25 to 50 µM

Q: How did the IC50 [1] turn out when Cc1ccc(SC(=Cc2ccc(Cl)cc2)C(=O)c2ccc(Br)cc2)cc1 [Example 90] was run?
A: 1 to 10 µM

Q: And the IC50 (DU145 (prostate cancer))?
A: 10 to 25 µM

Q: What does the source list for Cc1ccc(SC(=Cc2ccc(Cl)cc2)C(=O)c2ccc(Cl)cc2)cc1 [Example 91]?
A: IC50 [1]: 1 to 10 µM; IC50 (DU145 (prostate cancer)): 25 to 50 µM

Q: Which results are given for CCOc1ccc(C=C(Sc2ccc(C)cc2)C(=O)c2ccc(Cl)cc2)cc1OC [Example 93]?
A: IC50 [1]: 10 to 25 µM; IC50 (DU145 (prostate cancer)): 25 to 50 µM

Q: Which results are given for Cc1ccc(SC(=Cc2ccc(F)cc2OC(F)(F)F)C(=O)c2ccc(Br)cc2)cc1 [Example 94]?
A: IC50 [1]: 25 to 50 µM; IC50 (DU145 (prostate cancer)): 25 to 50 µM

Q: Cc1ccc(SC(=Cc2ccc(F)c(C)c2)C(=O)c2ccc(Br)cc2)cc1 [Example 95] was tested. Which IC50 [1] did it give?
A: 1 to 10 µM

Q: What about the IC50 (DU145 (prostate cancer)) of the same molecule?
A: 25 to 50 µM

Q: For Cc1ccc(SC(=Cc2ccc(O)c([N+](=O)[O-])c2)C(=O)c2ccc(Cl)cc2)cc1 [Example 96], which IC50 [1] is on record?
A: 25 to 50 µM

Q: What about the IC50 (DU145 (prostate cancer)) of the same molecule?
A: 10 to 25 µM

Q: Which IC50 [1] does the source give for CSc1ccc(C=C(Sc2ccc(C)cc2)C(=O)c2ccc(Br)cc2)cc1 [Example 97] here?
A: 1 to 10 µM

Q: And the IC50 (DU145 (prostate cancer))?
A: 25 to 50 µM

Q: How did the IC50 [1] turn out when COc1ccc(C=C(Sc2ccc(C)cc2)C(=O)c2ccc(Br)cc2)cc1 [Example 99] was run?
A: 10 to 25 µM

Q: What about the IC50 (DU145 (prostate cancer)) of the same molecule?
A: 50 to 100 µM

Q: Which IC50 [1] does the source give for COc1ccc(C=C(Sc2ccc(C)cc2)C(=O)c2ccc(Cl)cc2)cc1 [Example 100] here?
A: 1 to 10 µM

Q: And the IC50 (DU145 (prostate cancer))?
A: 1 to 10 µM

Q: For Cc1ccc(SC(=Cc2ccc(N(C)C)cc2)C(=O)c2ccc(Br)cc2)cc1 [Example 101], which IC50 [1] is on record?
A: 50 to 100 µM

Q: And the IC50 (DU145 (prostate cancer))?
A: > 100 µM

Q: Which results are given for Cc1ccc(SC(=Cc2ccc(N(C)C)cc2)C(=O)c2ccc(Cl)cc2)cc1 [Example 102]?
A: IC50 [1]: > 100 µM; IC50 (DU145 (prostate cancer)): > 100 µM

— US8808702B2, “Sulfide, sulfoxide and sulfone chalcone analogues, derivatives thereof and therapeutic uses thereof” (Temple University-of the Commonwealth System of Higher …, priority 2006, dated 2014)
